The conditions of the data set: PAMPA.

The values below come from article PMC9354084 (ACS Chemical Neuroscience, 2022).

On to `CCN(C)C(=O)Oc1cccc([C@H](C)N(C)C)c1` [rivastigmine], for which the CNS prediction entry is listed as “CNS + (key: CNS +: high BBB permeation predicted, Pe (×10-6 cm s-1) > 4.0; CNS -: low BBB permeation predicted, Pe (×10-6 cm s-1) < 2.0)”.
